Assay [1] has as its target Latent membrane protein 1 (Human herpesvirus 4 (strain B95-8), UniProt P03230). As to the kind of experiment: LMP1 TES1 pathway selectivity over dsRED control – imaging, HEK293T, dual-color eGFP/dsRED, cherry-picks, selectivity assay for LMP1 NF-kB inhibitor project, dose response (AID 588398). It is filed as functional, cell-based.
The subject of assay [2] is Streptococcus sp. 'group A'. As to the kind of experiment: Streptococcus pyogenes SK(-)GAS viability under kanamycin – luminescence, BacTiterGlo, confirmation, counter-screen for streptokinase expression inhibitor project, dose response (AID 1900). It is filed as functional, organism-based. (In general: A counterscreen serves to expose hits that act by an unwanted route or on another target.)

In assay [3] the test system is BJ. As to the kind of experiment: BJ-TERT fibroblast viability loss – cell-based, RAS-independent, luminescence, dose response (AID 1933). It is filed as functional. Conditions: Homo sapiens.
Assay [4] is described as follows: cells. It is filed as functional, cell-based.
The target of a further assay is T1, Streptokinase A (Streptococcus pyogenes serotype M1, UniProt P10520).
T1 sequence (P10520 whole entry): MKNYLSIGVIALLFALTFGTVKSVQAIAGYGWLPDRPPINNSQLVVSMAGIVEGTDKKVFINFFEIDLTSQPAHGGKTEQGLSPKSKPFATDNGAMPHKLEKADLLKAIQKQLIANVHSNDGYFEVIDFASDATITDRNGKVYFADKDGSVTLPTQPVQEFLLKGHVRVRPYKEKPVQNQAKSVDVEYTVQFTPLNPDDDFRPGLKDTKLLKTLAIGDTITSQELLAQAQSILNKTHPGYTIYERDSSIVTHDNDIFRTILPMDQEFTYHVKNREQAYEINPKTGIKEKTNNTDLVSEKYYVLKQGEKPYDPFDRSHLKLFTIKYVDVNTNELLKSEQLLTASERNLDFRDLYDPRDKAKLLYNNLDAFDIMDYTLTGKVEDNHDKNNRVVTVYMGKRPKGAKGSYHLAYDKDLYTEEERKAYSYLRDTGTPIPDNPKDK
Kind of assay: viability-normalized secreted streptokinase activity reduction – plasminogen activation absorbance, OD405, dose response (AID 1914).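 Note: secreted streptokinase activity via plasminogen activation per viability signal from cell pellet.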 The assay is classed as functional, Streptococcus pyogenes M1 GAS.

Assay [5] deals with BJ. Kind of assay: cells. It is filed as functional, cell-based. Conditions: Homo sapiens.
Assay [6] is described as follows: cells. The assay is classed as functional, cell-based. This is another data set of the same source.
The test system of assay [7] is BJ. Kind of assay: BJ-TERT-LT-ST fibroblast viability loss – cell-based, RAS-independent, luminescence, dose response (AID 1935).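 Note: BJ fibroblasts immortalized with TERT plus LT and ST oncogenes.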 It is filed as functional. Conditions: Homo sapiens.
Assay [8] in a line: DRD fibroblast viability loss – cell-based, non-viral oncogenic, luminescence, dose response (AID 1934). The assay is classed as functional. Conditions: Homo sapiens.
The next assay concerns Streptococcus. As to the kind of experiment: GAS UMAA2166 growth inhibition – luminescence, BacTiterGlo, counter-screen for streptokinase expression inhibitor project, dose response (AID 1915).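 Note: potency for reduction of bacterial viability or growth.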 It is filed as functional, organism-based.
Assay [9] has as its system BJ. As to the kind of experiment: growth inhibition of engineered Ras-driven BJ cells – cell-based, alamar blue fluorescence, cherrypicked samples, dose response (AID 2631).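 Note: confirmatory dose-response assay in RAS-dependent BJ fibroblasts engineered with TERT, LT and ST, with cytotoxicity read by fluorescence.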 It is filed as functional. Conditions: Homo sapiens. On the technique in general: Alamar Blue is a resazurin reagent that responds to reducing activity.
Another assay concerns INS1. Kind of assay: INS-1E survival protection against cytokine death – cell-based, luminescence, retest, dose response (AID 449756).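 Note: cell death triggered by IL-1 beta plus TNF-alpha plus IFN-gamma mixture; protective hits raise ATP signal compared with cytokine alone wells.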 The assay is classed as functional. The settings on record: Rattus norvegicus.
For assay [10], the target named is Multidrug resistance protein CDR1 (Candida albicans, UniProt P43071). Kind of assay: inhibition of Nile Red efflux via Candida CDR1 – S. cerevisiae AD1-8u, singleplex, Cherry Pick1 hits, dose response (AID 588606). The assay is classed as functional.
Sequence of Multidrug resistance protein CDR1 (P43071 whole entry, looked up): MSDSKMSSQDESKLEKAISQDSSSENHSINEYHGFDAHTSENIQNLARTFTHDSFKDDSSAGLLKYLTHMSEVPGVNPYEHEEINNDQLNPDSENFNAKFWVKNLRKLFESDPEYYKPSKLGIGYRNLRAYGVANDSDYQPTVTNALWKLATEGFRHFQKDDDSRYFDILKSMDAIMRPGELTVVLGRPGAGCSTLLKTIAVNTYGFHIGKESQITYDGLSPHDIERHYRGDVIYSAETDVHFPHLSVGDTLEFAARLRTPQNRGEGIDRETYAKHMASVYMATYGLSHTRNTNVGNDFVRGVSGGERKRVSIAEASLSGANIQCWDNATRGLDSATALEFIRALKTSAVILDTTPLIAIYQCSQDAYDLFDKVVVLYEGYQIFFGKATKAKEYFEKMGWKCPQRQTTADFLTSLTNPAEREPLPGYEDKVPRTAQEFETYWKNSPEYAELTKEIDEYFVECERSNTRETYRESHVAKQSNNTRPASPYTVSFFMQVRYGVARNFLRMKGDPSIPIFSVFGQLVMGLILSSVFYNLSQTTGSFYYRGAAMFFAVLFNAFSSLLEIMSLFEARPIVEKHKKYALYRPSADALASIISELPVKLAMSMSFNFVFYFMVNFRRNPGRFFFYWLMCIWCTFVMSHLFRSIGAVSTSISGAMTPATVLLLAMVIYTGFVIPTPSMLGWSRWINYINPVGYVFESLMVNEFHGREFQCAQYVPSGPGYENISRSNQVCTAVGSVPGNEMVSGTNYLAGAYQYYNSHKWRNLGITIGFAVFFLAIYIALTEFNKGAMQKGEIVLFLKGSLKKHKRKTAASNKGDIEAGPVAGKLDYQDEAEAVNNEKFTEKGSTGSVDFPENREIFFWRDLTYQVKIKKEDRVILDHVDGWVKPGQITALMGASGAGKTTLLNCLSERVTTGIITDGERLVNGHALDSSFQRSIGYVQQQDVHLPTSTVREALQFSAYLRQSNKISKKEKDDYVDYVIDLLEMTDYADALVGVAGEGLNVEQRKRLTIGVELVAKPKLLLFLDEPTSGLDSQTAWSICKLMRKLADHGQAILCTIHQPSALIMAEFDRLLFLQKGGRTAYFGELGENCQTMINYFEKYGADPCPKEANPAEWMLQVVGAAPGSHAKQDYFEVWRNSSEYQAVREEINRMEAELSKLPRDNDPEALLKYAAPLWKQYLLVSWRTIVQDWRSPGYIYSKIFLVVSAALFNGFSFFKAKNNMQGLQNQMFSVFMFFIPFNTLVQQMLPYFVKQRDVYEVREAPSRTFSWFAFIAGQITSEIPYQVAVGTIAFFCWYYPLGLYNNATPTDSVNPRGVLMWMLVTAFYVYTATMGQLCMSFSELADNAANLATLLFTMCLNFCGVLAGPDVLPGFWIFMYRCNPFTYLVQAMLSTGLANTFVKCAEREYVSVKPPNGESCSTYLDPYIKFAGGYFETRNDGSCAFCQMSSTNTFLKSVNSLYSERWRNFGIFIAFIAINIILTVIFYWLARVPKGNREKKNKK
Assay [11] deals with Candida albicans. As to the kind of experiment: Candida growth reduction in fluconazole presence – CaCi-2 strain, Alamar Blue, dry powder, set 2, antifungal resistance reversal project, dose response (AID 488930). The assay is classed as functional, organism-based.
Assay [12] relates to Candida albicans. Kind of assay: C. albicans growth inhibition with fluconazole – CaCi-2 strain, Alamar Blue, dry powder, set 4, dose response (AID 488943). It is filed as functional, organism-based.
In assay [13] the test system is Candida albicans. Kind of assay: antifungal activity against resistant Candida strain – CaCi-8, fluconazole, Alamar Blue, dry powder, dose response (AID 488807). The assay is classed as functional, organism-based.
The subject of assay [14] is Candida albicans. As to the kind of experiment: resistant Candida growth with fluconazole co-treatment – CaCi-8 strain, Alamar Blue, dry powder, set 2, dose response (AID 488909). The assay is classed as functional, organism-based.
In assay [15] the test system is HEK293. As to the kind of experiment: cells. The assay is classed as functional, cell-based. Conditions: Homo sapiens.
Assay [16] addresses Nuclear receptor subfamily 0 group B member 1 (Homo sapiens, UniProt P51843). As to the kind of experiment: Luminescence-based cell-based high throughput dose response assay for inhibitors of the orphan nuclear receptor subfamily 0, group B, member 1 (DAX1; NR0B1). [Related pubchem assays (depositor defined):AID504766, AID504790]. It is filed as functional.
Another assay deals with Jurkat. As to the kind of experiment: SAR Analysis of small molecule inhibitors of […] specific antigen receptor-induced NF-kB activation in a Jurkat cell line using a luminescence assay - Set 3. [Related pubchem assays (depositor defined):AID435022, AID435025, AID465]. The settings on record: Homo sapiens. It is filed as functional, cell-based.
Assay [17] has as its system HEK293. As to the kind of experiment: SAR Analysis of small molecule inhibitors of B-cell specific antigen receptor-induced NF-kB activation in a HEK-293T cell line using a luminescence assay - Set 2. [Related pubchem assays (depositor defined):AID435022, AID435025, AID489021]. The assay is classed as functional, cell-based. The settings on record: Homo sapiens.
In assay [18] the test system is HEK293. Kind of assay: HEK293T cell viability loss, resazurin readout – resazurin fluorescence, cytotoxicity control for NF-kB activator project, SAR follow-up (AID 493251). It is filed as functional, cell-based. Conditions: Homo sapiens.
In assay [19] the target is T2, Acyl-homoserine lactone acylase PvdQ (Pseudomonas aeruginosa (strain LESB58), UniProt Q9I194).
T2 sequence (Q9I194 whole entry): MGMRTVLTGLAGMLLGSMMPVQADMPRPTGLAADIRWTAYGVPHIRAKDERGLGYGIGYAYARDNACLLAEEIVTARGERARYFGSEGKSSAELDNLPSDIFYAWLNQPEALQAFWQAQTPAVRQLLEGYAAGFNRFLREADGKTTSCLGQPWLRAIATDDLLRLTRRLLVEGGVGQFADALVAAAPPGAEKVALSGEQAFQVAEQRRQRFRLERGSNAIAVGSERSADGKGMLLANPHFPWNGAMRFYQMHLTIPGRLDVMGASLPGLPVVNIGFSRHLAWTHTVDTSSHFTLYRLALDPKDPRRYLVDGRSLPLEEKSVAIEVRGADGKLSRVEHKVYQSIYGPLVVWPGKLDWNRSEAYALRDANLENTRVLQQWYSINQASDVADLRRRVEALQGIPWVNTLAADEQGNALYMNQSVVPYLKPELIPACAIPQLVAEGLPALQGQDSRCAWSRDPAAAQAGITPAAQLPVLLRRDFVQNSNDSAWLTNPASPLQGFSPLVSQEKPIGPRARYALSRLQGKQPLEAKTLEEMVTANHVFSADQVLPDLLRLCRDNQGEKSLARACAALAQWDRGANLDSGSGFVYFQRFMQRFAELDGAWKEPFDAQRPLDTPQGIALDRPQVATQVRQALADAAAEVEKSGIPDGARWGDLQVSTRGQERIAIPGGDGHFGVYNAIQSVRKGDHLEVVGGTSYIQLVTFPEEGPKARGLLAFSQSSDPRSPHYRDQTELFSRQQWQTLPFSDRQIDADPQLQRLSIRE
Kind of assay: PvdQ acylase enzyme activity blockers – biochemical, fluorescence, plate reader and imaging, cherry-picks, dose response (AID 493231).

Another assay deals with HeLa. Kind of assay: toxicity to human HeLa cells – cell-based, 48 h, plate reader, cherry-picks, cytotoxicity control, dose response (AID 504942). The assay is classed as functional.
Another assay has as its target T3, Hexokinase HKDC1 (Homo sapiens, UniProt Q2TB90).
T3 sequence (Q2TB90 whole entry): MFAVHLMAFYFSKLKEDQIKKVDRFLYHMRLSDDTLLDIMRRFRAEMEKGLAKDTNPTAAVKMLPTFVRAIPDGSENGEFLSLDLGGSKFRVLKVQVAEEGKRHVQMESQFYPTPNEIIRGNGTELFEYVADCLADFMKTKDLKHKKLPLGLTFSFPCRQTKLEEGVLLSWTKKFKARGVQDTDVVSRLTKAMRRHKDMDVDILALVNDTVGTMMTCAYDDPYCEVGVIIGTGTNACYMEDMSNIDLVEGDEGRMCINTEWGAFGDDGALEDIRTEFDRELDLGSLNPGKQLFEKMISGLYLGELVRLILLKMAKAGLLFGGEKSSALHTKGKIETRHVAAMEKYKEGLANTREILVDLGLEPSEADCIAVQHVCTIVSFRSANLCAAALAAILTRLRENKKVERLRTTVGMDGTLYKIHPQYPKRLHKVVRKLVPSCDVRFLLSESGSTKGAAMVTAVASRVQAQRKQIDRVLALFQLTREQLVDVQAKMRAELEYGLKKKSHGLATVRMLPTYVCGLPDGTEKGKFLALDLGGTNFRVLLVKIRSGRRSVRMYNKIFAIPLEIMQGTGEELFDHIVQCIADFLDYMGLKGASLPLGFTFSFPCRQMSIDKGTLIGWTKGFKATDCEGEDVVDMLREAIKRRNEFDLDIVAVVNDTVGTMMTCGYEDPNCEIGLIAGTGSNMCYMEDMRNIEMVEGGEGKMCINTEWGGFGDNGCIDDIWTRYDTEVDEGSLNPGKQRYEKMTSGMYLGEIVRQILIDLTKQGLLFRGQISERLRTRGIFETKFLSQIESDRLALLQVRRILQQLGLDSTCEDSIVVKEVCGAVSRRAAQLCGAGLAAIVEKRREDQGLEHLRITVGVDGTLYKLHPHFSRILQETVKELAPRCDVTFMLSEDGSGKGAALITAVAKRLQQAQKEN
As to the kind of experiment: inhibition of HKDC1 glucose phosphorylation – biochemical, W721R variant, dose response (AID 504729). The assay is classed as functional.

For assay [20], the system named is Escherichia coli. Kind of assay: microbe, parasite or virus in culture.
The test system of assay [21] is Escherichia coli. As to the kind of experiment: microbe, parasite or virus in culture. This is another data set of the same source.

SMILES strings stand for the structures. The source made the active and inactive calls. Positions of bridges follow the written chain, without caps; N, C: chain ends. Non-standard residues stand in square brackets, D forms with d. Residues, ends and D or L forms follow the SMILES beside them. *: point of attachment. X1 = CCC(C)C(N)C1=NC(C(=O)*)CS1; dOrn = NCCC[C@@H](N)C(=O)O A value given as a limit tells only on which side of the number the result lay.

Sequence of Nuclear receptor subfamily 0 group B member 1 (P51843 whole entry): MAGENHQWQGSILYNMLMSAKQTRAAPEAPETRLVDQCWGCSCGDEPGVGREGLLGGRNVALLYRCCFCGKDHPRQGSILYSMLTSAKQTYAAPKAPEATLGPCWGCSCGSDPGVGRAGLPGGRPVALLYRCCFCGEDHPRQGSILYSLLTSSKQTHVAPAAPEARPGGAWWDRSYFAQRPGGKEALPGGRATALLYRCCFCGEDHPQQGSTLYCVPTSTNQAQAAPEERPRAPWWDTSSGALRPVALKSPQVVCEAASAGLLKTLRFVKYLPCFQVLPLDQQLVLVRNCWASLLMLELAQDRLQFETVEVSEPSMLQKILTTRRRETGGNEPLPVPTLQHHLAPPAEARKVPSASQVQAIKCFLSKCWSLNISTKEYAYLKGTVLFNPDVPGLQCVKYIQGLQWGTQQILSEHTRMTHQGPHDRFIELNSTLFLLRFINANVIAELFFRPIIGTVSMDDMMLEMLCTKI
Sequence of Latent membrane protein 1 (P03230 whole entry): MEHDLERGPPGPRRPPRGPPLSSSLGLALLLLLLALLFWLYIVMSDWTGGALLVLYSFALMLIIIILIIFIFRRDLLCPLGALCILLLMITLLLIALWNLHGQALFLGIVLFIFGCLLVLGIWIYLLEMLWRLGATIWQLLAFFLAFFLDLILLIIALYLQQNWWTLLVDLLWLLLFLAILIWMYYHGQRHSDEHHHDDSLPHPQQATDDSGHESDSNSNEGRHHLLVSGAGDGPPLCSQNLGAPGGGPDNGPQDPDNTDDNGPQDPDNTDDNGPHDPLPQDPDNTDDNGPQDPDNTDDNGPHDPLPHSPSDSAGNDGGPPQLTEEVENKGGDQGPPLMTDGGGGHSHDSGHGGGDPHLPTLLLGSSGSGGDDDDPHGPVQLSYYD

One may read the AC50 as the concentration giving half of the maximal activity seen. `O=C1CN(C(=O)c2ccc(F)c(S(=O)(=O)N3CCOCC3)c2)c2ccccc2N1`: the AC50 in assay [1] is 48.3 µM (active).
As usually defined, the EC50 is the midpoint of the concentration-response curve. With `CCCc1sc(N/N=C/c2ccccn2)nc1-c1ccc(F)cc1`, the 50% effective concentration (EC50) is 7.2 µM (active) in assay [2]; 6.54 µM (active) with BJ [3]; 74.4 µM (active) in “cells [4]”; > 150 µM (not active) on Streptokinase A; 10.7 µM (active) in the assay with BJ [5]; 38.1 µM (active) in the assay “cells [6]”. In addition, the concentration giving a half-maximal response (EC50) in the assay on BJ [7] was 7.71 µM (active); in [8], 19.9 µM (active); with Streptococcus, 10.8 µM (active); with BJ [9], 19.4 µM (active). Besides, in the assay on INS1, the AC50 was 0.904 µM (active).
For `COc1ccc(-c2sc3cc4c(cc3c2-c2ccc(OCCN3CCCCC3)cc2)OCO4)cc1`, the EC50 in assay [10] was 0.062 µM (active).
On to `O=C(c1ccc(Cl)cc1)N1CCN(c2ccccn2)CC1`, for which the AC50 in the assay on Candida albicans [11] was 12 µM (active); in the assay on Candida albicans [12] it was 24.5 µM (active); in the assay with Candida albicans [13], 0.64 µM (active); in the assay with Candida albicans [14], 28.1 µM (active).
By IC50 is commonly meant the concentration that gives 50% inhibition. As to `CNC(=O)c1ncnnc1N(C)C(=O)NCc1ccccc1`, the IC50 (in the assay on HEK293 [15]; in [16]) was > 67.5 µM (inactive) throughout.
Regarding `CCOc1ccc(-c2nc(CSCC(=O)N3CCCC3)c(C)o2)cc1`, the IC50 in the assay with Jurkat was > 80 µM (inactive); with HEK293 [17] it was 46.6 µM (inactive); with HEK293 [18] it was > 80 µM (inactive).
Take `N#CC(c1ccccc1)c1cccc(Cl)n1` (configuration not stated): the AC50 in [19] is 1.1 µM (active); in the assay with HeLa, > 380 µM (inactive).
On to `CCC(C)C(N)C1=NC(C(=O)N[C@@H](CC(C)C)C(=O)N[C@H](CCC(=O)[O-])C(=O)N[C@H](C(=O)N[C@H]2CCCCNC(=O)[C@H](CC(N)=O)NC(=O)[C@@H](CC(=O)[O-])NC(=O)[C@H](Cc3c[nH]cn3)NC(=O)[C@@H](Cc3ccccc3)NC(=O)[C@H]([C@@H](C)CC)NC(=O)[C@@H](CCCN)NC2=O)[C@@H](C)CC)CS1.[Zn+2]` (some centres not stated) (X1-L[dE]IK[dOrn]I[dF]H[dD]N; lactam 4-C), for which the IC50 on Hexokinase HKDC1 is 2.69 µM (active). For the same molecule, the AC50 in the assay on Escherichia coli [20] was 38 µM (active); with Escherichia coli [21], 184 µM (active).

These data come from ChEMBL document CHEMBL1201862, “PubChem BioAssay data set” (2004).
